Data on 7 compounds can be found in patent publication US11427541B2, “Salt forms of a complement component C5A receptor” (CHEMOCENTRYX, INC., priority 2019, dated 2022).

Structures can show the parent of a compound that is named as a salt.

A short description of data set [1]: in vivo rat PK study, aqueous liquid suspension with 0.5% w/v Hydroxypropyl Cellulose and 0.5% w/v Poloxamer F-68 (Example 8). The following applies: oral 10 mg/kg of Compound 1, 5 mL/kg. As for the experimental part:
An in vivo rat PK study was conducted to compare the PK profile and bioavailability of the free base crystalline form of Compound 1 against various salt forms of Compound 1 in an aqueous liquid suspension formulation, which contained 0.5% w/v Hydroxypropyl Cellulose (Klucel GF grade) and 0.5% w/v Poloxamer F-68 (BASF Kolliphor P188). Each animal was orally administrated 10 mg/kg of Compound 1 at 5 mL/kg dosing volume (a dosing concentration of 2 mg/mL).

The nature of data set [2]: in vivo rat PK study, aqueous liquid suspension with 1% HPMC (Example 9). To be noted: oral 10 mg/kg of Compound 1, 5 mL/kg, suspension in 1% HPMC. The procedure: An in vivo rat PK study was conducted to compare the PK profile and bioavailability of the free base crystalline form of Compound 1 against various salt forms of Compound 1 in an aqueous liquid suspension formulation, which contained 1% HPMC. Each animal was orally administrated 10 mg/kg of Compound 1 at 5 mL/kg dosing volume (a dosing concentration of 2 mg/mL).

The nature of data set [3]: hygroscopicity and physical stability by dynamic vapor sorption (DVS). Format: physicochemical. To be noted: for DVS weight change from 5% to 95% relative humidity (RH): 5% to 95% RH; for DVS weight change from about 0% RH to about 75% relative humidity: about 0% to about 75% RH; for change in XRPD before and after the DVS measurement: data not shown; for DVS weight change from about 0% RH to about 55% relative humidity: about 0% to about 55% RH. The procedure: To evaluate the hygroscopicity and physical stability of the collected crystals under different humidity, dynamic vapor sorption (DVS) data was collected at 25° C. after the sample was pre-equilibrated at 0% RH to remove unbounded water. DVS was measured using a VTI SGA-100 Vapor Sorption Analyzer. Sorption and desorption data was collected over a range from 5% to 95% RH at 10% RH increments under a nitrogen purge. The equilibrium criterion used for analysis was less than 0.0100% weight change in 5 minutes with a maximum equilibrium time of 3 hours. [table]

Data set [4] is described as follows: stability of the crystals on storage and heating (HPLC, LCMS, NMR, XRPD). The following applies: for decomposition on storage (HPLC, LCMS and NMR analysis): 40° C. and 75% relative humidity for 45 days; for physical form by XRPD before and after the stability tests: both samples of the stability tests. The format is physicochemical. As for the experimental part:
The stability of the collected crystals were tested by storing the crystals at 40° C. and 75% relative humidity for 45 days.

Assay in data set [5]: as above
Format: physicochemical.

Where [6] appears, read: in vivo, po, 10 mg/kg, suspension in 0.5% HPC / 0.5% Poloxamer F-68.
Setting [7] is: in vivo, po, 10 mg/kg, suspension in 0.5% HPC / 0.5% Poloxamer F-68, read-out: AUC0-t.
[8] abbreviates: in vivo, po, 10 mg/kg, suspension in 0.5% HPC / 0.5% Poloxamer F-68, read-out: Cmax.
Setting [9] is: in vivo, po, 10 mg/kg, read-out: AUC0-t.
Setting [10] is: in vivo, po, 10 mg/kg, read-out: Cmax.
Where [11] appears, read: 55° C. in a vacuum oven for 24 h.
Setting [12] is: 75° C. for 1 week (open to air).
Where [13] appears, read: suspension in 0.5% HPC / 0.5% Poloxamer F-68.
The mark [14] stands for this setting: listed as Crystalline Camsylate.
Setting [15] is: listed as Crystalline Edisylate.
Setting [16] is: listed as Crystalline Napadisylate.
Setting [17] is: 25° C., listed as Napadisylate Salt of Compound 1 (Form I).
The mark [18] stands for this setting: listed as Crystalline Napsylate.
The mark [19] stands for this setting: 25° C., listed as Napsylate Salt of Compound 1 (Form I).

`Cc1ccc(NC(=O)[C@H]2CCCN(C(=O)c3c(C)cccc3F)[C@H]2c2ccc(NC3CCCC3)cc2)cc1C(F)(F)F.O=S(=O)(O)c1ccccc1` [Besylate Salt (Form I), N-cyclopentyl-4-((2R,3S)-1-(2-fluoro-6-methylbenzoyl)-3-((4-methyl-3-(trifluoromethyl)phenyl)-carbamoyl)piperidin-2-yl)benzenaminium benzenesulfonate]: the AUC(0-inf) (usually total exposure, with the tail of the curve extrapolated) in data set [1] (setting [6]) worked out at 2600 ng·h/mL; in data set [2] (in vivo, po, 10 mg/kg) it was 2220 ng·h/mL. Moreover, the results for the AUC0-t in data set [1] (setting [7]) and in data set [2] (setting [9]) were 2510 ng·h/mL and 2170 ng·h/mL, respectively. In addition, the Cmax (commonly the peak of the concentration-time curve) in data set [1] (setting [8]) was found to be 493 ng/mL; in data set [2] (setting [10]), 390 ng/mL. Moreover, the “DVS weight change from 5% to 95% relative humidity (RH)” value in data set [3] (25° C.) is recorded as 0.73%. Further, the “DVS weight change from about 0% RH to about 75% relative humidity” value in data set [3] (25° C.) is recorded as “about 0.5%”. For the same compound, the “change in XRPD before and after the DVS measurement” value (from here on “change … after the DVS measurement”) in data set [3] is “No change in XRPD”. In data set [4], the “decomposition on storage (HPLC, LCMS and NMR analysis)” value (“decomposition on storage” for short) is recorded as “did not result in any appreciable decomposition”. For the same compound, the “physical form by XRPD before and after the stability tests” value (shortened to “physical form”) in data set [4] was “remained the same”. Moreover, the “decomposition on heating (HPLC, LCMS and NMR analysis)” value (“decomposition on heating” for short) in data set [5] (setting [11]) and in data set [5] (setting [12]) was “did not result in any appreciable decomposition” throughout.
On to `Cc1ccc(NC(=O)[C@H]2CCCN(C(=O)c3c(C)cccc3F)[C@H]2c2ccc(NC3CCCC3)cc2)cc1C(F)(F)F` [Camsylate Salt (Form I), N-cyclopentyl-4-((2R,3S)-1-(2-fluoro-6-methylbenzoyl)-3-((4-methyl-3-(trifluoromethyl)phenyl)-carbamoyl)piperidin-2-yl)benzenaminium (1S)-(+)-10-camphorsulfonate], for which, in data set [1] (setting [13]), the AUC0-t turned out to be 3870 ng·h/mL, the AUCinf stood at 3922 ng·h/mL and the Cmax was found to be 738 ng/mL. For the same compound, in data set [2] (setting [14]), the AUC0-t came out at 2877 ng·h/mL, the AUCinf amounted to 3005 ng·h/mL and the Cmax came to 553 ng/mL. Besides, in data set [3] (25° C., listed as Camsylate Salt of Compound 1 (Form I)), the “DVS weight change from 5% to 95% relative humidity (RH)” value was 0.96%. Further, in data set [3] (25° C., about 0% to about 65% RH), the “DVS weight change from about 0% RH to about 65% relative humidity” value is “about 0.35%”. The “change … after the DVS measurement” value in data set [3] is “No change in XRPD”. In data set [4], the “decomposition on storage” value is recorded as “did not result in any appreciable decomposition”; the “physical form” value is “remained the same”. Besides, the “decomposition on heating” value in data set [5] (setting [11]) was “did not result in any appreciable decomposition”. The “decomposition on heating” value in data set [5] (setting [12]) is given as “did not result in any appreciable decomposition”.
In data set [2], `Cc1ccc(NC(=O)[C@H]2CCCN(C(=O)c3c(C)cccc3F)[C@H]2c2ccc(NC3CCCC3)cc2)cc1C(F)(F)F` [Crystalline Free Base, (2R,3S)-2-(4-(cyclopentylamino)phenyl)-1-(2-fluoro-6-methylbenzoyl)-N-(4-methyl-3-(trifluoromethyl)phenyl)piperidine-3-carboxamide] came in with an AUC0-t of 1361 ng·h/mL, an AUCinf of 1377 ng·h/mL and a Cmax of 168 ng/mL.
As for `Cc1ccc(NC(=O)[C@H]2CCCN(C(=O)c3c(C)cccc3F)[C@H]2c2ccc(NC3CCCC3)cc2)cc1C(F)(F)F` [Edisylate Salt (Form I), N-cyclopentyl-4-((2R,3S)-1-(2-fluoro-6-methylbenzoyl)-3-((4-methyl-3-(trifluoromethyl)phenyl)carbamoyl)piperidin-2-yl)benzenaminium ethane-1,2-disulfonate], in data set [1] (setting [13]), the AUC0-t stood at 2839 ng·h/mL, the AUCinf was 3197 ng·h/mL and the Cmax is reported as 435 ng/mL. In data set [2] (setting [15]), this compound gave an AUC0-t of 2126 ng·h/mL, an AUCinf of 2162 ng·h/mL and a Cmax of 525 ng/mL.
Regarding `Cc1ccc(NC(=O)[C@H]2CCCN(C(=O)c3c(C)cccc3F)[C@H]2c2ccc(NC3CCCC3)cc2)cc1C(F)(F)F` [Napadisylate Salt (Form I), N-cyclopentyl-4-((2R,3S)-1-(2-fluoro-6-methylbenzoyl)-3-((4-methyl-3-(trifluoromethyl)phenyl)-carbamoyl)piperidin-2-yl)benzenaminium naphthalene-1,5-disulfonate], in data set [1] (setting [13]), the AUC0-t was 3417 ng·h/mL, the AUCinf stood at 3478 ng·h/mL and the Cmax is 718 ng/mL. In data set [2] (setting [16]), this compound returned an AUC0-t of 5856 ng·h/mL, an AUCinf of 7743 ng·h/mL and a maximum concentration (Cmax) of 753 ng/mL. Besides, in data set [3] (setting [17]), the “DVS weight change from 5% to 95% relative humidity (RH)” value was 1.42% and the “DVS weight change from about 0% RH to about 55% relative humidity” value is listed as “about 0.6%”. In addition, the “change … after the DVS measurement” value in data set [3] is “No change in XRPD”. In data set [4], the “decomposition on storage” value was “did not result in any appreciable decomposition”; the “physical form” value is given as “remained the same”. In addition, in data set [5] (setting [11]), the “decomposition on heating” value is on record as “did not result in any appreciable decomposition”. Moreover, the “decomposition on heating” value in data set [5] (setting [12]) is listed as “did not result in any appreciable decomposition”.
For `Cc1ccc(NC(=O)[C@H]2CCCN(C(=O)c3c(C)cccc3F)[C@H]2c2ccc(NC3CCCC3)cc2)cc1C(F)(F)F` [Napsylate Salt (Form I), N-cyclopentyl-4-((2R,3S)-1-(2-fluoro-6-methylbenzoyl)-3-((4-methyl-3-(trifluoromethyl)phenyl)-carbamoyl)piperidin-2-yl)benzenaminium naphthalene-2-sulfonate], in data set [1] (setting [13]), the AUC0-t is 4876 ng·h/mL, the AUCinf is 5057 ng·h/mL and the Cmax is listed as 778 ng/mL. In data set [2] (setting [18]), the AUC0-t was found to be 4277 ng·h/mL, the AUCinf came to 4589 ng·h/mL and the Cmax turned out to be 601 ng/mL. Moreover, in data set [3] (setting [19]), the “DVS weight change from 5% to 95% relative humidity (RH)” value is reported as 0.65% and the “DVS weight change from about 0% RH to about 55% relative humidity” value was “about 0.2%”. The “change … after the DVS measurement” value in data set [3] is recorded as “No change in XRPD”. Further, in data set [4], the “decomposition on storage” value is recorded as “did not result in any appreciable decomposition”; the “physical form” value is “remained the same”. Also, the “decomposition on heating” value in data set [5] (setting [11]) is on record as “did not result in any appreciable decomposition”. Further, the “decomposition on heating” value in data set [5] (setting [12]) is recorded as “did not result in any appreciable decomposition”.
Consider `Cc1ccc(NC(=O)[C@H]2CCCN(C(=O)c3c(C)cccc3F)[C@H]2c2ccc(NC3CCCC3)cc2)cc1C(F)(F)F.Cc1ccc(S(=O)(=O)O)cc1` [Tosylate Salt (Form I), N-cyclopentyl-4-((2R,3S)-1-(2-fluoro-6-methylbenzoyl)-3-((4-methyl-3-(trifluoromethyl)phenyl)-carbamoyl)piperidin-2-yl)benzenaminium 4-methylbenzenesulfonate], for which the total exposure AUC(0-inf) in data set [1] (setting [6]) was determined as 4150 ng·h/mL; in data set [2] (in vivo, po, 10 mg/kg), 3370 ng·h/mL. Also, the AUC0-t in data set [1] (setting [7]) was 4040 ng·h/mL; in data set [2] (setting [9]), 3310 ng·h/mL. Also, the Cmax was determined as 591 ng/mL in data set [1] (setting [8]) and 649 ng/mL in data set [2] (setting [10]). Besides, the “DVS weight change from 5% to 95% relative humidity (RH)” value in data set [3] (25° C.) was 0.83%. The “DVS weight change from about 0% RH to about 75% relative humidity” value in data set [3] (25° C.) is reported as “about 0.58%”. Also, in data set [3], the “change … after the DVS measurement” value was “No change in XRPD”. The “decomposition on storage” value in data set [4] was “did not result in any appreciable decomposition”. Moreover, the “physical form” value in data set [4] is given as “remained the same”. In addition, the “decomposition on heating” value in data set [5] (setting [11]) and in data set [5] (setting [12]) was “did not result in any appreciable decomposition” each time.
